Usually melting point stands for the temperature, or range, at which the solid turns liquid. Molecule `CSc1cc(C)nc(SC)c1NC(=O)CN1CCN(CCSc2nc3cc(C(F)(F)F)ccc3o2)CC1` [Example 4, 2-[4-[2-(5-trifluoromethylbenzoxazol-2-ylthio)ethyl]piperazin-1-yl]-N-[2,4-bis(methylthio)-6-methylpyridin-3-yl]acetamide] showed a melting point of 103 to 104 °C.

On to `Cc1cc(OCC(F)(F)F)c(NC(=O)CN2CCN(CCSc3nc4cc(F)c(F)cc4[nH]3)CC2)c(OCC(F)(F)F)n1` [Example 5, 2-[4-[2-(5,6-difluorobenzimidazol-2-ylthio)ethyl]piperazin-1-yl]-N-[2,4-bis(2,2,2-trifluoroethoxy)-6-methylpyridin-3-yl]acetamide], for which the melting point was 191 to 192 °C.

`Cc1cc(OCC(F)(F)F)c(NC(=O)CN2CCN(CCSc3nc4ccccc4o3)CC2)c(OCC(F)(F)F)n1` [Example 7, 2-[4-[2-(benzoxazol-2-ylthio)ethyl]piperazin-1-yl]-N-[2,4-bis(2,2,2-trifluoroethoxy)-6-methylpyridin-3-yl]acetamide]: the melting point fell in the range of 141 to 142 °C.

For `Cc1cc(C(F)(F)F)c(NC(=O)CN2CCN(CCSc3nc4ccccc4s3)CC2)c(C)n1` [Example 8, 2-[4-[2-(benzothiazol-2-ylthio)ethyl]piperazin-1-yl]-N-[2,6-dimethyl-4-trifluoromethyl-pyridin-3-yl]acetamide], the melting point lay in the range of 107 to 108 °C.
